According to US20150353495A1 (PORTOLA PHARMACEUTICALS, INC., priority 2010, published 2015):

Key:
JAK3 = target: T1, JAK3 (Homo sapiens, UniProt P52333); test: Z'-LYTE kinase assay JAK3; type: biochemical
T1 construct: 5 μl of catalytic domain recombinant Kinase enzyme+Tyr peptide substrate (Invitrogen, CA); purchased Invitrogen
How it was run: (§1)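 Read-out is FRET fluorescence between coumarin and fluorescein on a Tyr6 peptide, lost when the development protease cleaves unphosphorylated substrate. Kinase reaction used recombinant catalytic domain with ATP, 1 h at room temperature, 1% DMSO.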

JAK1 = target: T2, JAK1 (Homo sapiens, UniProt P23458); test: Z'-LYTE kinase assay JAK1; type: biochemical
T2 construct: 5 μl of catalytic domain recombinant Kinase enzyme+Tyr peptide substrate (Invitrogen, CA); purchased Invitrogen
How it was run: as §1

JAK2 = target: T3, JAK2 (Homo sapiens, UniProt O60674); test: Z'-LYTE kinase assay JAK2; type: biochemical
T3 construct: 5 μl of catalytic domain recombinant Kinase enzyme+Tyr peptide substrate (Invitrogen, CA); purchased Invitrogen
How it was run: as §1

[1] = test system: JAK1/3 signaling to STAT6 in Ramos B cells; test: IL4 stimulation of JAK1/3 signaling to STAT6 in Ramos B cells (pSTAT6 Y641, FACS); type: cell-based; conditions: Homo sapiens; for inhibition at 0.2 µM: 0.2 uM compound, read-out: IL-4/STAT6 in Ramos Percent Inhibition at 0.2 uM; for inhibition at 1 µM: 1.0 uM compound, read-out: IL-4/STAT6 in Ramos Percent Inhibition at 1.0 uM
Method: IL4 stimulation of JAK1/3 signaling to STATE in Ramos B cells:
As an alternative strategy to measure effect of JAK3 inhibitors on JAK1/3 dependent cytokine signaling pathways, IL4 stimulation of the Ramos Burkett's B cell line is used. IL4 engages a receptor consisting of the IL4 receptor alpha chain and the common gamma chain. […] Ramos B cells are suspended in tissue culture media containing 10% fetal calf serum at 10×10̂6 cells/ml. 100 μl aliquots are pre-treated for 1 hour with various concentrations of compound, and then stimulated for 15 minutes with 15 ng IL4. The signaling reaction is terminated by fixing in 2% paraformaldehyde for 10 minutes at room temperature. Fixed cells are then washed and permeablized by suspension in 100% methanol at −80° C. Following overnight incubation at 4° C., cells are washed and resuspended in PBS containing 0.5% bovine serum albumin containing pSTAT6 Y641-PE conjugated antibody. After 1 hour incubation, cells are washed and the extent of STAT6 phosphorlyation in Ramos cells is measured by FACS analysis.

TYK2 = target: T4, TYK2 (Homo sapiens, UniProt P29597); test: Z'-LYTE kinase assay TYK2; type: biochemical
T4 construct: 5 μl of catalytic domain recombinant Kinase enzyme+Tyr peptide substrate (Invitrogen, CA); purchased Invitrogen
T4 sequence (P29597 897-1176 limits assumed): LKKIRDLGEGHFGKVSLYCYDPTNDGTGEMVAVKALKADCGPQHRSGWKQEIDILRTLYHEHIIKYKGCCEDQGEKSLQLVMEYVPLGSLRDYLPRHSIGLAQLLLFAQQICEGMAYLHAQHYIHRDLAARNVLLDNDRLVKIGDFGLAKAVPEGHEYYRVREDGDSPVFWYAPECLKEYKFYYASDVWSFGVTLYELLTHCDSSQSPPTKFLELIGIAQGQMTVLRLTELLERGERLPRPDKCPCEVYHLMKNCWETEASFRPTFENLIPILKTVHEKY
Method: JAK and TYK2 tyrosine phosphorylation activity is measured using the Z′-LYTE™ Technology developed by Invitrogen Corporation (Carlsbad, Calif.). For JAK1, JAK2 and JAK3 the Z′-LYTE™ Kinase Assay Kit-Tyr6 Peptide (part number PV4122) was used. For TYK2 the Z′-LYTE™ Kinase Assay Kit-Tyr6 Peptide (part number PV3192) was used. The Z′-LYTE™ biochemical assay employs a fluorescence resonance energy transfer (FRET) coupled-enzyme format and is based on the differential sensitivity of phosphorylated and non-phosphorylated peptides to proteolitic cleavage. The assay uses a synthetic peptide substrate that is labelled with a donor fluorophore (coumarin) and an acceptor fluorophore (fluorescein) that make up a FRET pair. In the primary reaction (the Kinase Reaction), the kinase transfers the γ-phosphate of ATP to a single tyrosine residue on the substrate, while the presence of a kinase inhibitor in the primary reaction suppresses phosphorylation. In the secondary reaction (the Development Reaction), a site-specific protease (the Development Reagent) is added. The development buffer quenches the Kinase Reaction, while the protease recognizes and cleaves non-phosphorylated Z′-LYTE™ peptide substrate. Cleavage disrupts FRET between the donor and acceptor fluorophores on the non-phosphoryleted substrate, while uncleaved, phosphorylated substrate maintains FRET.
To test the ability of candidate molecules to inhibit JAK tyrosine phosphorylation activity, molecules are reconstituted in 100% DMSO and serially diluted 1:10 in polypropylene v-bottom microtiter plates. The candidate molecules are then diluted 1:25 into kinase buffer and 2.5 μl transferred into duplicate wells of a 384 well low volume black microtiter assay plate (Corning, USA). The final DMSO concentration in the assay is 1%. The kinase reaction contains 2.5 μl of a candidate molecule, 5 μl of catalytic domain recombinant Kinase enzyme+Tyr peptide substrate (Invitrogen, CA) and 2.5 μl ATP (Invitrogen, CA). The kinase reaction is allowed to procede for 1 hour at room temperature. The protease reaction is initiated by the addition of 5 μl Development Reagent (Invitrogen, CA). After 1 hour incubation at room temperature the fluorescence is measured using a FlexStation plate reader (Molecular Devices, Sunnyvale, Calif.). The reader settings used are as follows: Fluorescence mode, endpoint, top read, excitation 400 nm, emission 445 nm and 520 nm, Auto Cutoff 435 nm and 515 nm, PMT sensitivity high, 6 reads per well Inhibition of JAK kinase activity is calculated as the percent phosphorylation of substrate in the presence of inhibitor compared to the percent phosphorylation of substrate in the absence of inhibitor. IC50's were derived using Xlfit 4.3 (IDBS, UK), 4 parameter logistic model 205: Y=(A+4B-A)/(1+((C/x)AD)))).

T1 sequence (P52333 822-1111 limits assumed): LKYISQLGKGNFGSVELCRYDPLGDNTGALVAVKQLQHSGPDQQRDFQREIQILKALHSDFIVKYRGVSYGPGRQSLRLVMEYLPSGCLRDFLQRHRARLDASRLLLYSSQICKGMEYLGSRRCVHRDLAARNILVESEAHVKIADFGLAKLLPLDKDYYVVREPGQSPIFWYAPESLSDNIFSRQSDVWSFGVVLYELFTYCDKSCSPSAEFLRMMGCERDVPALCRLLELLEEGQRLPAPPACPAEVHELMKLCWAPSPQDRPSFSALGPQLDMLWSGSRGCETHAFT
T2 sequence (P23458 875-1153 limits assumed): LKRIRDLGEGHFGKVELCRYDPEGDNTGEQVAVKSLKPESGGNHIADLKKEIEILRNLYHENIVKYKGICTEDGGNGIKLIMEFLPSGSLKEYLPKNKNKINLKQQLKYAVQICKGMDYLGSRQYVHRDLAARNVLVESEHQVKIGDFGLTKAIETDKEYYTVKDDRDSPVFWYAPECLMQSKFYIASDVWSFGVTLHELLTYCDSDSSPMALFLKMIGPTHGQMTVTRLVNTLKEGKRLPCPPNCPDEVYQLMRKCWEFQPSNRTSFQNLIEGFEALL
T3 sequence (O60674 849-1124 limits assumed): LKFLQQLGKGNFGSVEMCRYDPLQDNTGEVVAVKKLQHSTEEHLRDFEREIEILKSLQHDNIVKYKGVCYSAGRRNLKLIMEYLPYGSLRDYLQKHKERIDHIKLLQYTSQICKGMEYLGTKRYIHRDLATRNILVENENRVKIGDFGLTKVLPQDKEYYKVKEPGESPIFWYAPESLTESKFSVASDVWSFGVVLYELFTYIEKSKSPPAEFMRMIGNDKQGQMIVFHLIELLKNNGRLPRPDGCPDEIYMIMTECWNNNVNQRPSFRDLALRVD

IC50 (JAK3) [nM]	IC50 (JAK1) [nM]	IC50 (JAK2) [nM]	IC50 (TYK2) [nM]	SMILES	inhibition at 0.2 µM [1] [%]	inhibition at 1 µM [1] [%]
10 to 100	100 to 1000	10 to 100	100 to 1000	CC(=O)N1CCN(c2ccc(Nc3cc(NCc4ccccc4)c(C(N)=O)cn3)cc2)CC1 [Example 3, 6-(4-(4-acetylpiperazin-1-yl)phenylamino)-4-(benzylamino)nicotinamide]	22	43
1 to 10	100 to 1000	100 to 1000	100 to 1000	CNC(=O)[C@H]1CCCN(c2ccc(Nc3cc(NCc4ccccc4)c(C(N)=O)cn3)cc2)C1 [Example 4, (S)-4-(benzylamino)-6-(4-(3-(methylcarbamoyl)piperidin-1-yl)phenylamino)nicotinamide]	32	68
1 to 10	100 to 1000	100 to 1000	100 to 1000	CC(=O)N1CCN(c2ccc(Nc3cc(NCc4ccccc4)c(C(N)=O)cn3)cc2C)CC1 [Example 5, 6-(4-(4-acetylpiperazin-1-yl)-3-methylphenylamino)-4-(benzylamino)nicotinamide]	37	61
1 to 10	100 to 1000	100 to 1000	100 to 1000	CNC(=O)[C@@H]1CCCN(c2ccc(Nc3cc(NCc4ccccc4)c(C(N)=O)cn3)cc2)C1 [Example 6, (R)-4-(benzylamino)-6-(4-(3-(methylcarbamoyl)piperidin-1-yl)phenylamino)nicotinamide]	39	65
1 to 10	100 to 1000	100 to 1000	> 1000	CNC(=O)[C@@H]1CCCN(c2ccc(Nc3cc(N[C@H](C)c4ccccc4)c(C(N)=O)cn3)cc2)C1 [Example 8, 6-(4-((R)-3-(methylcarbamoyl)piperidin-1-yl)phenylamino)-4-((R)-1-phenylethylamino)nicotinamide]	8	30
100 to 1000	> 1000	> 1000	> 1000	Cc1ccc(Nc2cc(NCc3ccccc3)c(C(N)=O)cn2)cc1 [Example 10, 4-(benzylamino)-6-(p-tolylamino)nicotinamide]	6	20
10 to 100	> 1000	> 1000	> 1000	COc1cccc(Nc2cc(NCc3ccccc3)c(C(N)=O)cn2)c1 [Example 11, 4-(benzylamino)-6-(3-methoxyphenylamino)nicotinamide]	11	15
10 to 100	> 1000	100 to 1000	> 1000	COc1ccc(Nc2cc(NCc3ccccc3)c(C(N)=O)cn2)cc1 [Example 12, 4-(benzylamino)-6-(4-methoxyphenylamino)nicotinamide]	15	11
1 to 10	> 1000	100 to 1000	100 to 1000	COc1cc(Nc2cc(NCc3ccccc3)c(C(N)=O)cn2)ccc1C(=O)N(C)C [Example 436, 4-(benzylamino)-6-(4-(dimethylcarbamoyl)-3-methoxyphenylamino)nicotinamide]		
1 to 10	> 1000	100 to 1000	100 to 1000	CN(C)C(=O)c1ccc(Nc2cc(NCc3ccccc3)c(C(N)=O)cn2)cc1Cl [Example 437, 4-(benzylamino)-6-(3-chloro-4-(dimethylcarbamoyl)phenylamino)nicotinamide]		
1 to 10	100 to 1000	10 to 100	100 to 1000	Cc1cc(Nc2cc(NCc3ccccc3)c(C(N)=O)cn2)ccc1C(=O)N(C)C [Example 438, 4-(benzylamino)-6-(4-(dimethylcarbamoyl)-3-methylphenylamino)nicotinamide]		
1 to 10	> 1000	100 to 1000	100 to 1000	CC(=O)N1CCC[C@H](CNc2cc(Nc3ccc(C(=O)N(C)C)c(C)c3)ncc2C(N)=O)C1 [Example 443]		
1 to 10	100 to 1000	10 to 100	100 to 1000	Cc1cc(Nc2cc(NCc3ccccc3)c(C(N)=O)cn2)ccc1C(=O)N1CCCC1 [Example 446, 4-(benzylamino)-6-(3-methyl-4-(pyrrolidine-1-carbonyl)phenylamino)nicotinamide]		
1 to 10	100 to 1000	10 to 100	100 to 1000	Cc1cc(Nc2cc(NCc3ccccc3)c(C(N)=O)cn2)ccc1C(=O)N1CCOCC1 [Example 447, 4-(benzylamino)-6-(3-methyl-4-(morpholine-4-carbonyl)phenylamino)nicotinamide]		
1 to 10	100 to 1000	10 to 100	10 to 100	Cc1cc(Nc2cc(NCc3ccccc3)c(C(N)=O)cn2)ccc1C(=O)N1CCC1 [Example 448, 6-(4-(azetidine-1-carbonyl)-3-methylphenylamino)-4-(benzylamino)nicotinamide]		
1 to 10	100 to 1000	100 to 1000	100 to 1000	Cc1cc(Nc2cc(NCc3ccccc3)c(C(N)=O)cn2)ccc1C(=O)NCCO [Example 449, 4-(benzylamino)-6-(4-(2-hydroxyethylcarbamoyl)-3-methylphenylamino)nicotinamide]		
1 to 10	100 to 1000	100 to 1000	10 to 100	Cc1cc(Nc2cc(NCc3ccccc3)c(C(N)=O)cn2)ccc1C(=O)N(C)C1CC1 [Example 450, 4-(benzylamino)-6-(4-(cyclopropyl(methyl)carbamoyl)-3-methylphenylamino)nicotinamide]		
1 to 10	100 to 1000	10 to 100	100 to 1000	Cc1cc(Nc2cc(NCc3ccccc3)c(C(N)=O)cn2)ccc1C(=O)N1CC=CC1 [Example 451, 4-(benzylamino)-6-(4-(2,5-dihydro-1H-pyrrole-1-carbonyl)-3-methylphenylamino)nicotinamide]		
1 to 10	100 to 1000	10 to 100	100 to 1000	Cc1cc(Nc2cc(NCc3ccccc3)c(C(N)=O)cn2)ccc1C(=O)N(C)CCO [Example 452]		
1 to 10	100 to 1000	10 to 100	100 to 1000	COCCN(C)C(=O)c1ccc(Nc2cc(NCc3ccccc3)c(C(N)=O)cn2)cc1C [Example 453, 4-(benzylamino)-6-(4-((2-methoxyethyl)(methyl)carbamoyl)-3-methylphenylamino)nicotinamide]		
